In ChEMBL document CHEMBL1129291, “Tyrosine kinase inhibitors. 8. An unusually steep structure-activity relationship for analogues of 4-(3-bromoanilino)-6,7-dimethoxyquinazoline (PD 153035), a potent inhibitor of the epidermal growth factor receptor” (J Med Chem, 1996):

Target: Epidermal growth factor receptor (Homo sapiens, UniProt P00533)
Assay: Concentration required to inhibit the phosphorylation of a 14-residue fragment of phospholipase C gamma 1 by Epidermal growth factor receptor from A431 cell vesicles

Epidermal growth factor receptor, sequence (P00533 whole entry, the tested form may be a part): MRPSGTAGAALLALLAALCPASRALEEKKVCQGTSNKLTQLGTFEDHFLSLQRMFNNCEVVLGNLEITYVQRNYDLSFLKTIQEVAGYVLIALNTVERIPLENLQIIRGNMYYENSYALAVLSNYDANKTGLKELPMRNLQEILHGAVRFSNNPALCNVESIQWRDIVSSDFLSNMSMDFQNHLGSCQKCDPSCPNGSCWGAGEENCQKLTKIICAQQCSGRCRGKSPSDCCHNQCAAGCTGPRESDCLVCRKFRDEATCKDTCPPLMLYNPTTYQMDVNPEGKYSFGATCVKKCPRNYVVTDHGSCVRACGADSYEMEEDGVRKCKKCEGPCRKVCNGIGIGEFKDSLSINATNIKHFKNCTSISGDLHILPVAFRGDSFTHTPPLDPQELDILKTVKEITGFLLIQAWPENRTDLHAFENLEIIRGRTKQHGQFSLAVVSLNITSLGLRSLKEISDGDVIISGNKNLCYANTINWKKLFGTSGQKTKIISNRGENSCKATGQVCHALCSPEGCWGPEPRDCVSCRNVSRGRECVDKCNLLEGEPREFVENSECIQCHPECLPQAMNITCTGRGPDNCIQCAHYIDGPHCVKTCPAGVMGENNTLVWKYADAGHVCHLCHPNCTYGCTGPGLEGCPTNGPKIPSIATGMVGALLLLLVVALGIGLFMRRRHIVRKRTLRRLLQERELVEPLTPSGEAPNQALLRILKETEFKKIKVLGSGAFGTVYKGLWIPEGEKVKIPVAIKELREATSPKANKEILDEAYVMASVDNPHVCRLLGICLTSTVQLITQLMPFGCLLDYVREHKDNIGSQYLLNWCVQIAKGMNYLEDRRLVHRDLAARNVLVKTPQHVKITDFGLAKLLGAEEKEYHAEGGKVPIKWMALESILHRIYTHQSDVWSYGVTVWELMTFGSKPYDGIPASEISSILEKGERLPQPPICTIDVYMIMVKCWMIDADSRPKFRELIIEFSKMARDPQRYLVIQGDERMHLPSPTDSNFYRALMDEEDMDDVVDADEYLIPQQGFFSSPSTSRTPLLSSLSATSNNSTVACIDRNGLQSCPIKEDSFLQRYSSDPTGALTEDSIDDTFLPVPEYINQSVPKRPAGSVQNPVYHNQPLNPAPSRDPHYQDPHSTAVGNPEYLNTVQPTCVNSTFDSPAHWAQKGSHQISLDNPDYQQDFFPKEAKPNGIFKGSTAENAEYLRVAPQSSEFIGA

IC50 [nM] | Compound
> 10000 | COc1cc2nc(C)nc(Nc3cccc(Br)c3)c2cc1OC
0.24 | COc1cc2ncnc(Nc3cccc(C(F)(F)F)c3)c2cc1OC
0.67 | COc1cc2ncnc(Nc3cccc(Br)c3)c2c(OC)c1OC
105 | CCCCOc1cc2ncnc(Nc3cccc(Br)c3)c2cc1OCCCC
> 10000 | O=[N+]([O-])c1ccc2ncnc(Nc3cccc(C(F)(F)F)c3)c2c1
0.072 | COc1cc2ncnc(Nc3ccc(Br)c(Br)c3)c2cc1OC
0.96 | COc1cc2ncnc(Nc3ccc(Br)cc3)c2cc1OC
574 | Nc1ccc2ncnc(Nc3cccc(C(F)(F)F)c3)c2c1
5000 | O=[N+]([O-])c1ccc2ncnc(Nc3ccccc3)c2c1
55 | COc1ccc2ncnc(Nc3ccccc3)c2c1
0.25 | Nc1ccc2c(Nc3cccc(Cl)c3)ncnc2c1
0.006 | CCOc1cc2ncnc(Nc3cccc(Br)c3)c2cc1OCC
0.17 | CCCOc1cc2ncnc(Nc3cccc(Br)c3)c2cc1OCCC
> 10000 | COc1cc2c(Nc3cccc(Br)c3)ncnc2c(OC)c1OC
4 | CNc1ccc2ncnc(Nc3cccc(Br)c3)c2c1
84 | CN(C)c1ccc2ncnc(Nc3cccc(Br)c3)c2c1
30 | COc1ccc2ncnc(Nc3cccc(Br)c3)c2c1
6.5 | Nc1cc2c(Nc3cccc(Br)c3)ncnc2cc1Cl
15 | COc1cc2ncnc(Nc3cccc(Br)c3)c2cc1[N+](=O)[O-]
25 | O=[N+]([O-])c1cc2c(Nc3cccc(Br)c3)ncnc2cc1Cl
770 | Nc1ccc2ncnc(Nc3ccccc3)c2c1
11 | CN(C)c1ccc2c(Nc3cccc(Br)c3)ncnc2c1
12000 | O=[N+]([O-])c1ccc2c(Nc3ccccc3)ncnc2c1
0.35 | Nc1ccc2c(Nc3cccc(I)c3)ncnc2c1

IC50 [nM] | Compound
128 | COc1cc2ncnc(Nc3ccccc3Br)c2cc1OC
120 | COc1ccc2c(Nc3ccccc3)ncnc2c1
113 | COc1cc2ncnc(Nc3cc(Br)cc(Br)c3)c2cc1OC
68 | CNc1cc2ncnc(Nc3cccc(Br)c3)c2cc1[N+](=O)[O-]
0.69 | CNc1cc2ncnc(Nc3cccc(Br)c3)c2cc1N
56 | Fc1cccc(Nc2ncnc3ccccc23)c1
15 | Brc1cccc(Nc2ncnc3cc4c(cc23)OCO4)c1
540 | O=[N+]([O-])c1ccc2c(Nc3cccc(I)c3)ncnc2c1
463 | COc1cc2nc(N)nc(Nc3cccc(Br)c3)c2cc1OC
4.7 | Oc1ccc2c(Nc3cccc(Br)c3)ncnc2c1
> 10000 | COc1ccc2c(Nc3cccc(Br)c3)ncnc2c1OC
40 | CC(=O)Nc1ccc2c(Nc3cccc(Br)c3)ncnc2c1
2000 | CN(C)c1cc2ncnc(Nc3cccc(Br)c3)c2cc1[N+](=O)[O-]
53 | Nc1cc2ncnc(Nc3cccc(Br)c3)c2cc1[N+](=O)[O-]
810 | O=[N+]([O-])c1ccc2c(Nc3cccc(Cl)c3)ncnc2c1
28 | CC(=O)Nc1cc2ncnc(Nc3cccc(Br)c3)c2cc1[N+](=O)[O-]
2 | Nc1ccc2c(Nc3cccc(F)c3)ncnc2c1
29 | COc1cc2ncnc(Nc3ccccc3)c2cc1OC
> 10000 | O=[N+]([O-])c1ccc2c(Nc3cccc(C(F)(F)F)c3)ncnc2c1
0.89 | COc1cc2ncnc(Nc3cccc(I)c3)c2cc1OC
159 | CN(C)c1cc2ncnc(Nc3cccc(Br)c3)c2cc1N
1370 | COc1ccc2ncnc(Nc3cccc(Br)c3)c2c1OC
3.8 | COc1cc2ncnc(Nc3cccc(Br)c3)c2cc1N
